Assay results published in the supplement of paper PMC10307832.

Legend:
Assay in all cases: relative viability (nuclei count vs DMSO), 5 days (fraction); higher = more cells survive
[1] = compound: COc1cc(Nc2ncc(F)c(Nc3ccc4c(n3)NC(=O)C(C)(C)O4)n2)cc(OC)c1OC [R406]
Outline: (§1)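 In 1536-well plates, lung cancer cell lines rested overnight at 37 °C before five library-drug doses (not always all listed), √10 apart, were pinned onto vehicle-anchored plates. Nuclei were counted with MetaXpress from 4× Hoechst images taken after 5 days without medium change. Viability compares treated-well with vehicle-well nuclei as a median over plates, and plates needed control CV below 25% plus at least one doubling to pass.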

[2] = compound: O=C(/C=C/c1cccnc1)NCCCCC1CCN(C(=O)c2ccccc2)CC1 [Daporinad]
Outline: as §1

[3] = compound: COc1cc(Nc2ncc(F)c(Nc3ccc4c(n3)NC(=O)C(C)(C)O4)n2)cc(OC)c1OC [R406] + Nc1ncn([C@H]2C[C@H](O)[C@@H](CO)O2)c(=O)n1 [Decitabine] (partner 2 µM)
Outline: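 Nuclei were stained with Hoechst during a one-step fixation (final 0.05% Triton X-100, 1% formaldehyde, 1 ug/ml Hoechst) carried out 5 days after dosing, then counted on 4× images. The cells, lung cancer lines in 1536-well plates, had been dosed by pin tool the day after seeding with one drug alone or a fixed anchor-drug dose plus five library-drug doses (not always all listed) in √10 steps. Relative viability is the nuclei count in treated wells divided by that in vehicle wells, and each value is the median of duplicate plates.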

## UMC-11
[1]; 0.08 µM
  relative viability: 0.964
[1]; 0.253 µM
  relative viability: 1.15
[1]; 0.8 µM
  relative viability: 1.16
[1]; 2.53 µM
  relative viability: 0.861
[1]; 8 µM
  relative viability: 0.481
[2]; 0.0005 µM
  relative viability: 0.963
[2]; 0.001581 µM
  relative viability: 1.07
[2]; 0.005 µM
  relative viability: 1.03
[2]; 0.01581 µM
  relative viability: 1.05
[3]; first compound 0.08 µM
  relative viability: 0.618
[3]; first compound 0.253 µM
  relative viability: 0.703
[3]; first compound 0.8 µM
  relative viability: 0.75
[3]; first compound 2.53 µM
  relative viability: 1.34
[3]; first compound 8 µM
  relative viability: 0.312
